# Assay results: patent US12365670B2, “GLP-IR agonists and uses thereof” (QILU REGOR THERAPEUTICS INC., priority 2018, dated 2025)
# Biological target: GLP1R (Homo sapiens, UniProt P43220)
# Test: GLP1R cAMP HTRF assay, HEK293/GLP-1R/CRE/Luc (HEK293T cells)
# Format: cell-based
# Details: concentration yielding 50% of the maximum cAMP level of the same compound
# Description: GLP-1R-mediated agonist activity was determined with a cell-based functional assay utilizing an HTRF (Homogeneous Time-Resolved Fluorescence) cAMP detection kit (cAMP Dynamic 2 Assay Kit; CisBio cat #62AM4PEC) that measures cAMP levels in the cell. The method is a competitive immunoassay between native cAMP produced by the cells and exogenous cAMP labeled with the dye d2. The tracer binding is visualized by a mAb anti-cAMP labeled with Cryptate. The specific signal (i.e., energy transfer) is inversely proportional to the concentration of cAMP in either standard or experimental sample.
# A cell line stably expressing the receptor was isolated. […]
# IBMX and BSA were freshly added on the day of assay]. A 10 μL sample of the cell suspension was counted on an Invitrogen Countess II to determine cell viability and cell count per mL. […]
# Following the 30 minute incubation, 5 μL of labeled d2 cAMP and 5 μL of anti-cAMP antibody (both diluted 1:20 in cell lysis buffer; as described in the manufacturer's assay protocol) were added to each well of the assay plate. […] Raw data were converted to nM cAMP by interpolation from a cAMP standard curve (as described in the manufacturer's assay protocol) and the percent effect was determined relative to a saturating concentration of the full agonist GLP-17-37 (10 nM) included on each plate. […]
# Sequence of GLP1R (P43220 24-463): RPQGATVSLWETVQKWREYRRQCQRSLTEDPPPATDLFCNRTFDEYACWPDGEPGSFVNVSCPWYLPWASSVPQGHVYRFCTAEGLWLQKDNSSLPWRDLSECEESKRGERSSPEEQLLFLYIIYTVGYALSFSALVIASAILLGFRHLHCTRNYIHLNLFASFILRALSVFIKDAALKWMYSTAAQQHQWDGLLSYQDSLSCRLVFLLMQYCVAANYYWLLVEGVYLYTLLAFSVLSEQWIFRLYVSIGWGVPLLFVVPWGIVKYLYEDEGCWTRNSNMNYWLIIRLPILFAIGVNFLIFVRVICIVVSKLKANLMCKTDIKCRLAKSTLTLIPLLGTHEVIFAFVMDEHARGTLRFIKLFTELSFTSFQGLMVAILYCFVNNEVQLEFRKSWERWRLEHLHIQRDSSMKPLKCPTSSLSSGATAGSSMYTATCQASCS
smiles,measurement,value
"N#Cc1ccc(COc2cc(F)cc(C3=CCN(Cc4nc5ccc(C(=O)O)cc5n4C[C@@H]4CCO4)CC3)c2)c(F)c1 [Compound 218, (S)-2-((4-(3-((4-cyano-2-fluorobenzyl)oxy)-5-fluorophenyl)-5,6-dihydropyridin-1(2H)-yl)methyl)-1-(oxetan-2-ylmethyl)-1H-benzo[d]imidazole-6-carboxylic acid]",EC50,≤ 0.15 µM
